Source: US20240043403A1, “HETEROARYL CARBOXAMIDE COMPOUND” (Astellas Pharma Inc., priority 2020, published 2024)
Counter-ions that a name gives are not always drawn.

How the values were obtained:
human recombinant DGK ξ = human recombinant DGK ξ (Homo sapiens (Human), UniProt Q13574); assay: Evaluation of DGK ξ inhibitory effect (ADP-Glo Kinase Assay); format: biochemical; conditions: ADP-Glo luminescence
Protocol: Test Example 1. Evaluation of DGK ξ Inhibitory Effect
The inhibitory effect of a test compound on human recombinant DGK ξ (Cama Biosciences, Inc., 12-410-20N) was examined by the following method in which detection is performed with ADP-Glo™ Kinase Assay (Promega Corporation).
To a 384-well plate (Greiner Bio-One Co., Ltd.), 3 μL of a DGK ξ enzyme dissolved in an assay buffer (40 mM Tris-HCl pH 7.5, 10 mM MgCl2, 1 mM dithiothreitol (DTT) and 0.1 mg/mL bovine serum albumin (BSA)) (90 ng/mL) was added, and 3 μL of the test compound diluted with the same assay buffer was added so that an intended final concentration was obtained. The mixture was left standing at room temperature for 15 minutes, 3 μL of a substrate (150 μM 1-oleoyl-2-acetyl-sn-glycerol (Sigma-Aldrich Co. LLC), 480 μM phosphatidylserine (Avanti, Inc.) and 150 μM UltraPure-ATP (attached to ADP-Glo)) was then added, and the mixture was left standing at room temperature for 30 minutes to react. Thereafter, 3 μL of an ADP-Glo Reagent was added, and the mixture was left standing at room temperature for 40 minutes to stop the enzyme reaction. Further, 6 μL of a Kinase-Detection Reagent was added, the mixture was left standing at room temperature for 30 minutes, and the luminescence was then measured using ARVO X3 (PerkinElmer, Inc.). The half maximal inhibitory concentration (IC50) was calculated by Sigmoid-Emax model non-linear regression analysis, where the signal value in solvent treatment was set to 0% inhibition and the signal value without addition of the DGK ξ enzyme was set to 100% inhibition. […] In the table. Ex represents the number of each Example described below.

B16-F1 cells = assay: Evaluation of antitumor effect in syngeneic mouse model bearing mouse melanoma cell line B16-F1; format: in vivo; conditions: po, 240 h, C57BL/6J mice bearing B16-F1, read-out: Antitumor effect (relative tumor growth inhibition); for inhibition in vivo at 0.3 mg/kg: 0.3 mg/kg orally once daily for 10 days; for inhibition in vivo at 0.03 mg/kg: 0.03 mg/kg orally once daily for 10 days
Protocol: Test Example 3: Evaluation of Antitumor Effect in Syngeneic Mouse Model Bearing Mouse Melanoma Cell Line B16-F1
A cell suspension liquid prepared by suspending B16-F1 cells (ATCC, CRL-6323) in PBS at 2.0×10^6 cells/mL was subcutaneously inoculated into 5-week-old female mice (C57BL/6J from Charles River Laboratories Japan, Inc.) in a volume of 50 μL. 5 days after the inoculation, the mice were grouped in such a manner that there was substantially no difference in tumor volume between groups, and administration of the test compound was started. The test was conducted with a solvent group and a test compound administration group each having 10 mice. 0.5% methylcellulose (Shin-Etsu Chemical Co., Ltd.) was orally administered to the solvent group, and 0.5% methylcellulose mixed with the test compound was orally administered to the test compound administration group. The administration was performed for 10 days once daily, and the tumor diameter and the body weight were measured twice a week. The following expression was used for calculation of the tumor volume.
[tumor volume (mm^3)]=[tumor major diameter […]]×[tumor minor diameter (mm)]^2×0.5
The relative tumor growth inhibition (%) of the test compound was calculated, where the tumor volume of the solvent group immediately before the start of administration was set to 100% inhibition, and the tumor volume of the solvent group on the day after the last administration was set to 0% inhibition. […] In the table, Ex represents the number of each Example described below.

[1] = tested on: IL-2 production in Jurkat E6.1 cells; assay: Evaluation of IL-2 production in human T-cell leukemia cell line Jurkat E6.1 (TCR stimulation anti-CD3/anti-CD28); format: cell-based; conditions: Jurkat E6.1, 24 h, concentration at which IL-2 increased to 10 times the solvent control, Jurkat E6.1, anti-CD3/anti-CD28, 24 hours
Protocol: Test Example 2. Evaluation of Il-2 Production in Human T-Cell Leukemia Cell Line Jurkat E6.1
The effect of the test compound on the IL-2 production by T-cell receptor (TCR) stimulation (anti-CD3/anti-CD28) in Jurkat E6.1 cells (ECACC, 88042803) was evaluated.
A 5 μg/mL anti-CD3 antibody (eBioscience, Inc., OKT3 clone) diluted with phosphate buffer saline (PBS) was added to a 96-well plate (Iwaki & Co., Ltd.) at 50 μL/well, and left standing at 4° C. for 12 hours or more to provide an anti-CD3 antibody-coated plate in advance. When the plate was used for experiments, the plate was washed with 200 μL of PBS once, an anti-CD28 antibody (eBioscience, Inc., 28.2 clone) diluted to a concentration of 10 μg/mL with a culture medium (RPMI1640 (Sigma-Aldlich Co. LLC.) containing 10% fetal bovine serum (Hyclone Laboratories, Inc.)) was then added at 10 μL/well, and the plate was used for assay as a culture plate for TCR stimulation.
Subsequently, the test compound was mixed with Jurkat E6.1 cells in such a manner that an intended final concentration was obtained, and the mixture was plated at 90 μL/well so that the number of cells per well was 1×10^5(that is, finally the culture was performed at 1×10^5 cells/100 μL/well). For culture cell conditions, the culture was performed at 37° C. in the presence of 5% CO2 using RPMI1640 medium containing 10% fatal bovine serum.
After 24 hours, the culture supernatant was collected, and IL-2 was quantitatively determined using AlphaLISA human IL2 Immunoassay Research Kit (PerkinElmer, Inc.). The IL-2 measurement was performed under Alpha Screen standard setting conditions (the fluorescence intensity at 570 nm was measured with an excitation wavelength of 680 nm) using EnVision 2104-0010 and EnVision 2104-0020 (PerkinElmer, Inc.). The IL-2 quantitative value of the solvent treatment control was set to 1, and the test compound concentration at which the IL-2 quantitative value of the test compound treatment sample increased to 10 times the IL-2 quantitative value of the control (EC10fold) was calculated by inverse estimation with the aid of Sigmoid-Emax model non-linear regression analysis. […] In the table, Ex represents the number of each Example described below.

human recombinant DGK ξ, sequence (Q13574 whole entry): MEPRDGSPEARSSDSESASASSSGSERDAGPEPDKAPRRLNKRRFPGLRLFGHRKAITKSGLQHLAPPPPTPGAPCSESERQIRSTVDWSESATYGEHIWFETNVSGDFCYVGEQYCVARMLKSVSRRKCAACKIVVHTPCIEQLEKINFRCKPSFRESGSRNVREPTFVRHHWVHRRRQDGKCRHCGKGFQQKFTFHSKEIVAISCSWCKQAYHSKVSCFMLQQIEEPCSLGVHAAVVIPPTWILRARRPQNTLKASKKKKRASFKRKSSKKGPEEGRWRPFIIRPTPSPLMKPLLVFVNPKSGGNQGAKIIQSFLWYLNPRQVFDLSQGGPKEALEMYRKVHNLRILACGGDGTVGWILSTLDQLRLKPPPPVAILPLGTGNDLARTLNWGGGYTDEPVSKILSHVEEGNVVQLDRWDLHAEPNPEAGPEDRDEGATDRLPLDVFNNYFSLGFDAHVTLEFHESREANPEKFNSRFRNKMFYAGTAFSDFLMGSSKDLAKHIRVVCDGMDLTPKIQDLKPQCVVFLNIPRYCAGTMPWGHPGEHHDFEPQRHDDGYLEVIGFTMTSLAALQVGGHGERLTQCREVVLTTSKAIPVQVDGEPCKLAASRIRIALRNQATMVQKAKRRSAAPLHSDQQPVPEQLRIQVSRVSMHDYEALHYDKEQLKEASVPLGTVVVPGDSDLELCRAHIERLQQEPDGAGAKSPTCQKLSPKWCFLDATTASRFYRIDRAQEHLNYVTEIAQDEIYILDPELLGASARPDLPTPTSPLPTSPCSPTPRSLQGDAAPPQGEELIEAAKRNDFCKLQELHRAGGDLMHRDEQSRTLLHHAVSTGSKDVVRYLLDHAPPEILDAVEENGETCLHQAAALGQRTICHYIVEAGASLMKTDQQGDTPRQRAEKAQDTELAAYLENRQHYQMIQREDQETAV

Work on `CNC[C@H]1CN(c2c(NC(=O)c3ccn(-c4ccnnc4)n3)ccc(Oc3ccccc3F)c2Cl)CCN1C` [Example 86, N-[3-chloro-4-(2-fluorophenoxy)-2-{(3S)-4-methyl-3-[(methylamino)methyl]piperazin-1-yl}phenyl]-1-(pyridazin-4-yl)-1H-pyrazole-3-carboxamide] yielded an IC50 (human recombinant DGK ξ) of 2.9 nM and an inhibition in vivo at 0.3 mg/kg (B16-F1 cells) of 31%.
Work on `CN1CCN(c2c(NC(=O)c3ccn(CC(F)F)n3)ccc(Oc3ccccc3Cl)c2Cl)C[C@@H]1CN` [Example 20] yielded an IC50 (human recombinant DGK ξ) of 20 nM, an EC (10-fold increase) [1] of 0.036 µM and an inhibition in vivo at 0.3 mg/kg (B16-F1 cells) of 33%.
For `NC[C@@H]1CCCN(c2c(NC(=O)c3ccn(CC(F)F)n3)ccc(Oc3ccccc3F)c2C(F)(F)F)C1` [Example 1, monohydrochloride], the EC (10-fold increase) [1] was 0.11 µM and the inhibition in vivo at 0.03 mg/kg (B16-F1 cells) was 35%.
In the case of `CN1CCN(c2c(NC(=O)c3ccn(CC(F)F)n3)ccc(Oc3ccccc3Cl)c2C(F)(F)F)C[C@@H]1CN` [Example 13], the IC50 (human recombinant DGK ξ) is reported as 18 nM, the EC (10-fold increase) [1] is reported as 0.34 µM and the inhibition in vivo at 0.3 mg/kg (B16-F1 cells) is reported as 36%.
`N[C@@H]1CCN2CCN(c3c(NC(=O)c4coc(-c5ccnnc5)n4)ccc(Oc4ccccc4F)c3C(F)(F)F)C[C@@H]12` [Example 80] was tested, and the IC50 (human recombinant DGK ξ) was 45 nM, the EC (10-fold increase) [1] was 0.46 µM and the inhibition in vivo at 0.3 mg/kg (B16-F1 cells) was 31%.
In the case of `CNC[C@H]1CN(c2c(NC(=O)c3ccn(-c4ccnnc4)n3)ccc(Oc3ccccc3F)c2C(F)(F)F)CCN1C` [Example 29, N-[4-(2-fluorophenoxy)-2-{(3S)-4-methyl-3-[(methylamino)methyl]piperazin-1-yl}-3-(trifluoromethyl)phenyl]-1-(pyridazin-4-yl)-1H-pyrazole-3-carboxamide], the IC50 (human recombinant DGK ξ) is reported as 10 nM and the inhibition in vivo at 0.3 mg/kg (B16-F1 cells) is reported as 41%.
Work on `NC[C@]1(F)CCCN(c2c(NC(=O)c3ccn(-c4ccnnc4)n3)ccc(Oc3ccccc3F)c2C(F)(F)F)C1` [Example 45] yielded an IC50 (human recombinant DGK ξ) of 12 nM and an inhibition in vivo at 0.03 mg/kg (B16-F1 cells) of 30%.
In the case of `CNC[C@H]1CN(c2c(NC(=O)c3ccn(-c4ccnnc4)n3)ccc(C3CCCC3)c2C(F)(F)F)CCN1C` [Example 48], the IC50 (human recombinant DGK ξ) is reported as 5.8 nM and the inhibition in vivo at 0.3 mg/kg (B16-F1 cells) is reported as 40%.
Work on `CNC[C@@H]1CN(c2c(NC(=O)c3ccn(-c4ccnnc4)n3)ccc(Oc3ccccc3F)c2C(F)(F)F)CCN1C` [Example 47] yielded an IC50 (human recombinant DGK ξ) of 6.7 nM and an inhibition in vivo at 0.3 mg/kg (B16-F1 cells) of 42%.
Work on `CNC[C@H]1CN(c2c(NC(=O)c3ccn(CC(F)F)n3)ccc(Oc3ccccc3Cl)c2Cl)CCN1C` [Example 26] yielded an IC50 (human recombinant DGK ξ) of 19 nM.
`CNC[C@H]1CN(c2c(NC(=O)c3coc(-c4ccnnc4)n3)ccc(Oc3ccccc3F)c2C2CC2)CCN1C` [Example 103] was tested, and the IC50 (human recombinant DGK ξ) was 46 nM.
For `CNC[C@H]1CN(c2c(NC(=O)c3ccn(-c4ccnnc4)n3)ccc(OC3CCC3)c2C(F)(F)F)CCN1C` [Example 99], the IC50 (human recombinant DGK ξ) was 33 nM.
